Tests used:
Assay in all cases: relative viability (nuclei count vs DMSO), 5 days (fraction); higher = more cells survive
Trametinib + Navitoclax = compound: CC(=O)Nc1cccc(-n2c(=O)n(C3CC3)c(=O)c3c(Nc4ccc(I)cc4F)n(C)c(=O)c(C)c32)c1 [Trametinib] + CC1(C)CCC(c2ccc(Cl)cc2)=C(CN2CCN(c3ccc(C(=O)NS(=O)(=O)c4ccc(N[C@H](CCN5CCOCC5)CSc5ccccc5)c(S(=O)(=O)C(F)(F)F)c4)cc3)CC2)C1 [Navitoclax] (partner 0.5 µM)
In short: (§1)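 Lung cancer cell lines, seeded in 1536-well plates, were treated the following day by pin tool with a single drug or with five library-drug doses (not always all listed) in √10 steps on top of a fixed anchor-drug dose. Cells were fixed and nuclei stained in one step after 5 days, and nuclei were counted. Relative viability is the nuclei count for treated wells divided by that for vehicle wells, reported as medians of duplicate plates.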

Trametinib + Foretinib = compound: CC(=O)Nc1cccc(-n2c(=O)n(C3CC3)c(=O)c3c(Nc4ccc(I)cc4F)n(C)c(=O)c(C)c32)c1 [Trametinib] + COc1cc2c(Oc3ccc(NC(=O)C4(C(=O)Nc5ccc(F)cc5)CC4)cc3F)ccnc2cc1OCCCN1CCOCC1 [Foretinib] (partner 0.25 µM)
In short: as §1

Trametinib + Pictilisib = compound: CC(=O)Nc1cccc(-n2c(=O)n(C3CC3)c(=O)c3c(Nc4ccc(I)cc4F)n(C)c(=O)c(C)c32)c1 [Trametinib] + CS(=O)(=O)N1CCN(Cc2cc3nc(-c4cccc5[nH]ncc45)nc(N4CCOCC4)c3s2)CC1 [Pictilisib] (partner 1 µM)
In short: as §1

[1] = compound: CN1C=C(C2=CC=CC=C21)/C=C\3/C4=C(C=CC=N4)NC3=O + Nc1ncn([C@H]2C[C@H](O)[C@@H](CO)O2)c(=O)n1 [Decitabine] (partner 2 µM)
In short: as §1

UMC-11
relative viability (Trametinib + Navitoclax; first compound 0.0025 µM): 0.305 | relative viability (Trametinib + Navitoclax; first compound 0.007906 µM): 0.32 | relative viability (Trametinib + Navitoclax; first compound 0.025 µM): 0.288 | relative viability (Trametinib + Navitoclax; first compound 0.07906 µM): 0.266 | relative viability (Trametinib + Navitoclax; first compound 0.25 µM): 0.263 | relative viability (Trametinib + Foretinib; first compound 0.0025 µM): 1 | relative viability (Trametinib + Foretinib; first compound 0.007906 µM): 1.03 | relative viability (Trametinib + Foretinib; first compound 0.025 µM): 0.997 | relative viability (Trametinib + Foretinib; first compound 0.07906 µM): 1.06 | relative viability (Trametinib + Foretinib; first compound 0.25 µM): 1.03 | relative viability (Trametinib + Pictilisib; first compound 0.0025 µM): 0.662 | relative viability (Trametinib + Pictilisib; first compound 0.007906 µM): 0.785 | relative viability (Trametinib + Pictilisib; first compound 0.025 µM): 0.297 | relative viability (Trametinib + Pictilisib; first compound 0.07906 µM): 0.709 | relative viability (Trametinib + Pictilisib; first compound 0.25 µM): 0.663 | relative viability ([1]; first compound 0.02 µM): 0.604 | relative viability ([1]; first compound 0.06325 µM): 0.631 | relative viability ([1]; first compound 0.2 µM): 0.497 | relative viability ([1]; first compound 0.6325 µM): 0.395 | relative viability ([1]; first compound 2 µM): 0.646
